Measured values published in ChEMBL document CHEMBL2073974, “Identification of a novel gene family encoding human liver-specific organic anion transporter LST-1” (J Biol Chem, 1999).

T1: Solute carrier organic anion transporter family member 1B1 (Homo sapiens, UniProt Q9Y6L6)
T1 sequence (Q9Y6L6 whole entry): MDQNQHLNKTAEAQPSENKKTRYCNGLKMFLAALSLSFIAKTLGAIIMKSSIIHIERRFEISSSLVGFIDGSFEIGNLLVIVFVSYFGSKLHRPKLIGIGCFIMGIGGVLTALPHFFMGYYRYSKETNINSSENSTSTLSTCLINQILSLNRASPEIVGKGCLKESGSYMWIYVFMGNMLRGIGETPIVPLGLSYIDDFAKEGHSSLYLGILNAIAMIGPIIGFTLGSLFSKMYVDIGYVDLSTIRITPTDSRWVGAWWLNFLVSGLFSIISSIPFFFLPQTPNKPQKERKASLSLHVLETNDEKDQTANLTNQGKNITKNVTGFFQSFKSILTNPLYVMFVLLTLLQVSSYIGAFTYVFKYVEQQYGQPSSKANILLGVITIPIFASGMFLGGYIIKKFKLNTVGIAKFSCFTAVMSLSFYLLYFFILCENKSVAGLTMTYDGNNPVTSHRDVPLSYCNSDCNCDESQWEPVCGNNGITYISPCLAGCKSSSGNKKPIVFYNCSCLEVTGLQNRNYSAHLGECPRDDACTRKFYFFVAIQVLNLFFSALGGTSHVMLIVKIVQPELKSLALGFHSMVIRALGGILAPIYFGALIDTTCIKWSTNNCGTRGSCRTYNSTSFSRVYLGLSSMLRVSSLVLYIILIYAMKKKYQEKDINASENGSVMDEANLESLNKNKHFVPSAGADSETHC

B1: Solute carrier organic anion transporter family member 1B1 (Homo sapiens) (protein)
chain: T1 sequence (Q9Y6L6 whole entry)

Key:
[1] = molecular target: T1, Solute carrier organic anion transporter family member 1B1; experiment: (§1) TP_TRANSPORTER: uptake in Xenopus laevis oocytes; type: functional, cell-based; details: oocyte
[2] = substrate: N[C@@H](Cc1cc(I)c(Oc2cc(I)c(O)c(I)c2)c(I)c1)C(=O)O; experiment: as §1; type: functional, cell-based, Oocyte
[3] = substrate: N[C@@H](Cc1cc(I)c(Oc2ccc(O)c(I)c2)c(I)c1)C(=O)O; experiment: as §1; type: functional, cell-based, Oocyte

Molecule | Activity [1] | Km [2] | Km [3]
CCCCC[C@H](O)/C=C/[C@H]1[C@H](O)CC(=O)[C@@H]1C/C=C\CCCC(=O)O [DINOPROSTONE] | substrate [+] |  | 
C[C@]12CC[C@@H]3c4ccc(O)cc4CC[C@H]3[C@@H]1CC[C@@H]2O[C@@H]1O[C@H](C(=O)O)[C@@H](O)[C@H](O)[C@H]1O [ESTRADIOL 17B GLUCURONIDE] | substrate [+] |  | 
CCCCC/C=C\C\C=C/C=C/C=C/[C@@H](SC[C@@H](NC(=O)CC[C@H](N)C(=O)O)C(=O)NCC(=O)O)[C@@H](O)CCCC(=O)O [LEUKOTRIEN C4] | substrate [+] |  | 
CCCCC/C=C\C\C=C/C=C/C=C/[C@@H](SC[C@H](N)C(=O)O)[C@@H](O)CCCC(=O)O [LEUKOTRIEN E4] | substrate [+] |  | 
C[C@]12CC[C@H](OS(=O)(=O)O)CC1=CC[C@@H]1[C@@H]2CC[C@]2(C)C(=O)CC[C@@H]12 [PRASTERONE SULFURIC ACID] | substrate [+] |  | 
CCCCC[C@H](O)/C=C/[C@H]1OC(O)C[C@H](O)[C@@H]1C/C=C\CCCC(=O)O (stereo partly drawn) [THROMBOXANE B2] | substrate [+] |  | 
B1 |  | 3 µM | 2.7 µM
